# According to US5272150A, “Hydroxyalkylfuranyl derivatives” (Janssen Pharmaceutica N.V., priority 1992, dated 1993):
# System: compound 48/80-induced lethality in rats
# Test: Protection of rats from compound 48/80-induced lethality
# Type: in vivo
# Details: Rattus norvegicus, subcutaneous administration (sc)
# From the text: Int. Pharmacodyn. Ther. 251, 39-51 (1981).
# The term (sc) signifies subcutaneous administration.
row,Structure (SMILES),ED50 [mg/kg]
1,OCc1ccc(Cn2c(CC3CCN(CCNc4cnccn4)CC3)nc3ccccc32)o1 [1.22],0.04
2,"N#CCN1CCC(Nc2nc3ccccc3n2Cc2ccc(CO)o2)CC1 [Co. No. 3.22, 4-[[1-[[5-(hydroxymethyl)-2-furanyl]-methyl]-1H-benzimidazol-2-yl]amino]-1-piperidineacetonitrile]",0.04
3,CC(C)NC(=O)CCN1CCC(Nc2nc3ccccc3n2Cc2ccc(CO)o2)CC1 [Co. No. 3.12],0.04
4,CC(C)NC(=O)CCN1CCC(Cc2nc3ccccc3n2Cc2ccc(CO)o2)CC1 [1.12],0.01
5,"OCc1ccc(Cn2c(CC3CCN(CCc4ccccn4)CC3)nc3cccnc32)o1 [Co. No. 2.35, 5-[[2-[[1-[2-(2-pyridinyl)ethyl]-4-piperidinyl]methyl]-3H-imidazo[4,5-b]-pyridin-3-yl]methyl]-2-furanmethanol (E)-2-butenedioate(2:3)]",0.02
6,OCc1ccc(Cn2c(CC3CCN(CCNc4ncccn4)CC3)nc3ccccc32)o1 [1.23],0.02
7,"O=C(O)C(=O)O.O=C(O)C(=O)O.O=C(O)C(=O)O.OCc1ccc(Cn2c(CC3CCN(CCNc4cccnn4)CC3)nc3ccccc32)o1 [Co. No. 1.24, 5-[[2-[[1-[2-(3-pyridazinylamino)ethyl]-4-piperidinyl]methyl]-1H-benzimidazol-1-yl]methyl]-2-furanmethanol ethanedioate (1:3)]",0.02
8,"O=[N+]([O-])c1cnccc1NCCN1CCC(Nc2nc3ccccc3n2Cc2ccc(CO)o2)CC1 [Co. No. 3.26, 5-[[2-[[1-[2-[(3-nitro-4-pyridinyl)amino]-ethyl]-4-piperidinyl]amino]-1H-benzimidazol-1-yl]methyl]-2-furanmethanol]",0.04
9,Cc1nc2ccccn2c(=O)c1CCN1CCC(Nc2nc3cccnc3n2Cc2ccc(CO)o2)CC1 [2.10],0.04
10,Cc1nc2n(c(=O)c1CCN1CCC(Nc3nc4ccccc4n3Cc3ccc(CO)o3)CC1)CCS2 [3.15],0.04
11,Cc1nc2n(c(=O)c1CCN1CCC(Cc3nc4cccnc4n3Cc3ccc(CO)o3)CC1)CCCS2 [2.33],0.04
12,Cc1cc2nc(C)c(CCN3CCC(Nc4nc5cccnc5n4Cc4ccc(CO)o4)CC3)c(=O)n2o1 [2.32],0.02
13,Cc1nc2n(c(=O)c1CCN1CCC(Nc3nc4ccccc4n3Cc3ccc(CO)o3)CC1)CCCS2 [Co. No. 3.31],0.04
14,Cc1nc2sccn2c(=O)c1CCN1CCC(Nc2nc3cncnc3n2Cc2ccc(CO)o2)CC1 [5.03],0.04
15,Cc1nc2ccccn2c(=O)c1CCN1CCC(Nc2nc3ccccc3n2Cc2ccc(CO)o2)CC1 [3.17],0.04
16,CCn1nnn(CCN2CCC(Cc3nc4ccccc4n3Cc3ccc(CO)o3)CC2)c1=O [1.07],0.04
17,"O=c1ccc(NCCN2CCC(Cc3nc4ccccc4n3Cc3ccc(CO)o3)CC2)n[nH]1 [Co. No. 1.25, 6-[[2-[4-[[1-[[5-(hydroxymethyl)-2-furanyl]methyl]-1H-benzimidazol-2-yl]methyl]-1-piperidinyl]ethyl]amino]-3(2H)-pyridazinone ethanedioate (2:5)]",0.01
18,Cn1cccc1C(=O)NCCN1CCC(Cc2nc3ccccc3n2Cc2ccc(CO)o2)CC1 [1.15],0.04
19,CN1CCC(Nc2nc3ccccc3n2Cc2ccc(CO)o2)CC1 [3.03],0.02
20,Cc1nc2n(c(=O)c1CCN1CCC(Cc3nc4ccccc4n3Cc3ccc(CO)o3)CC1)CCS2 [1.10],0.01
21,"OCc1ccc(Cn2c(NC3CCNCC3)nc3ccccc32)o1 [Co. No. 3.11, 5-[[2-(4-piperidinylamino)-1H-benzimidazol-1-yl]methyl]-2-furanamethanol]",0.04
22,CN1CCC(Nc2nc3cncnc3n2Cc2ccc(CO)o2)CC1 [5.04],0.02
23,CCn1nnn(CCN2CCC(Nc3nc4ccccc4n3Cc3ccc(CO)o3)CC2)c1=O [3.13],0.04
24,O=c1[nH]c2ccccc2n1CCN1CCC(Nc2nc3ccccc3n2Cc2ccc(CO)o2)CC1 [3.19],0.02
25,Cc1nc2sccn2c(=O)c1CCN1CCC(Cc2nc3ccccc3n2Cc2ccc(CO)o2)CC1 [1.08],0.01
26,Cc1nc2sccn2c(=O)c1CCN1CCC(Nc2nc3cccnc3n2Cc2ccc(CO)o2)CC1 [2.09],0.01
27,"CN1CCC(Cc2nc3ccccc3n2Cc2ccc(CO)o2)CC1 [Co. No. 1.17, 5-[[2-[(1-methyl-4-piperidinyl)methyl]-1H-benzimidazol-1-yl]methyl]-2-furanmethanol]",0.04
28,"O=[N+]([O-])c1cnccc1NCCN1CCCC(Nc2nc3ccccc3n2Cc2ccc(CO)o2)CC1 (stereo not drawn) [Co. No. 4.14, 5-[[2-[[hexahydro-1-[2-[(3-nitro-4-pyridinyl)amino]ethyl]-1H-azepin-4-yl]amino]-1H-benzimidazol-1-yl]methyl]-2-furanmethanol hemihydrate]",0.04
29,COc1ccc(CCN2CCC(Cc3nc4ccccc4n3Cc3ccc(CO)o3)CC2)cc1 [1.11],0.04
30,Cc1nc2ccccn2c(=O)c1CCN1CCC(Cc2nc3ccccc3n2Cc2ccc(CO)o2)CC1 [1.09],0.02
